Consider ten molecules from US8765705B2, “Oligonucleotides inhibiting cellular migration” (Centre National de la Recherche Scientifique, priority 2009, dated 2014).

Entries after “also recorded” stand apart in the source; their conditions may differ. d = 2'-deoxy (DNA); r = 2'-OH (RNA)

Data set [1] concerns TSP1 mRNA. The data set is described as follows: TSP1 mRNA level in C4-2 cells, real-time RT-PCR normalized to cyclophilin A. The class given is cell-based, human. How it is done:
(§1) LNCaP and C4-2 cells were grown in RMPI containing 10% fetal calf serum, PC-3 cells in DMEM containing 10% fetal calf serum. The Hiperfect reagent (Qiagen, Courtaboeuf, France) was used to transfect cells in 24 wells plates with the indicated siRNAs (10 nM) as recommended by the manufacturer. A metabolic activity assay (WST1, Roche Diagnostics, Meylan France) was used to measure cell proliferation. To mimic hypoxia, cells were grown in the presence of 300 μM cobalt chloride for 48 h. For hypoxic conditions, cells were cultured at 37° C. with 5% CO2, 94% N2 and 1% O2 in a hypoxic incubator (Binder GmbH, Tuttligen, France).
(§2) Total RNA was isolated using TRIzol reagent (Invitrogen, Cergy Pontoise, France). RNA were retrotranscribed using a High capacity cDNA Reverse Transcription Kit (Applied Biosystems, Courtaboeuf, France). cDNA was quantified by real time PCR using the Power SYBR® Green PCR Master Mix (Applied Biosystems, Courtaboeuf, France). Human Cyclophilin A was used as an internal control. The sequences of the PCR primers are indicated in the supplementary table 2.
A general note: In qPCR the cycle at which signal appears reflects the starting amount.

The test system of data set [2] is TSP1. The data set is described as follows: TSP1 protein expression in C4-2 cells (indirect immunofluorescence). The class given is cell-based, human. The settings on record: for TSP1 protein level: C4-2 cells transfected with siRNA (10 nM), 48 h after transfection. Here is the method: FIG. […]
as §1

The subject of data set [3] is C4-2 cells. In words: Cell proliferation, metabolic activity assay (WST1). The class given is cell-based, human. Particulars: C4-2 cells transfected with siRNA. Here is the method:
as §1
On the technique in general: Tetrazolium dyes change colour on reduction, which living cells bring about.

Data set [4] has as its system C4-2 cells. The data set is described as follows: Apoptosis, enzymatic activity of caspases 3 and 7. Format: cell-based, human. The settings on record: for effect on apoptosis: C4-2 cells transfected with siRNA; for enzymatic activity of caspases 3 and 7 versus control: C4-2 cells, 48 h after transfection. Here is the method: FIG. 1F represents the enzymatic activity of caspases 3 and 7 measured 48 h after transfection of C4-2 cells with the TSP1a- or TSP1b-siRNA.

The subject of data set [5] is C4-2 cells. The data set is described as follows: Migration assay, modified Boyden chamber, C4-2 cells. Format: cell-based, human. Particulars: siRNA-transfected cells, towards fresh medium. How it is done: The cell migration capacity can be measured in vitro using a modified Boyden Chamber. Boyden Chamber consists of two compartments separated by a permeable membrane. Cells are placed in the upper chamber and the chemotactic factors in the lower chamber. Cells migrating through the membrane are counted.
The migration capacity was measured using a modified Boyden Chamber. Cells (40,000) were seeded in RPMI 1% FBS in the upper part of a cell culture-chamber-insert system separated from the lower chamber by a 8 μm PET membrane (BD Biosciences, Le Pont de Claix, France). RPMI 10% FBS, or conditioned medium was added in the lower compartment. Eighteen hours later, non migrating cells in the upper compartment were scrapped off using a cotton swab. Cells on the lower side of the membrane were fixed with methanol at −20° C. and stained with Hoechst 33258 (Sigma-Aldrich, Saint-Quentin Fallavier, France). Membranes were then excised, mounted on a glass side with Glycergel (DAKO) and cells counted.

In data set [6] the test system is TLR3, TLR7, IL6, IL12b, IFNβ, IFNγ, and IP10. In words: Induction of interferon or inflammatory cytokine genes in the spleen of nude mice, real time RT-PCR. The settings on record: five hours after one i.p. injection of 4 mg/kg in PBS.
Procedure: The mRNA level of the indicated genes, normalized to cyclophilin A, was quantified by real time RT-PCR in the spleen.
All the injections were carried out with a dose of 4 mg/kg siRNA diluted in PBS. Five hours after injection, mRNAs coding several genes involved in innate immune response or in inflammation were quantified by quantitative real time RT-PCT.
The test system of data set [7] is C4-2 cells. In words: Intracellular calcium concentration, Fura-2 calcium imaging. The settings on record: 300 μM. Format: cell-based, human. How it is done:
Fluorescence imaging was carried out in Hank's balanced salt solution (HBSS) containing 142 mM NaCl, 5.6 mM KCl, 1 mM MgCl2, 2 mM CaCl2, 0.34 mM Na2HPO4, 0.44 mM KH2PO4, 10 mM HEPES, and 5.6 mM glucose. Cytosolic calcium concentration was measured using Fura-2 loaded cells (2 μM) as previously described (Mariot et al., 2002). The intracellular calcium concentration was derived from the ratio of the fluorescence intensities for each of the excitation wavelengths (F340/F380) and from the Grynkiewicz equation (Grynkiewicz et al., 1985).
In general terms: A change in cytosolic calcium serves as a functional read-out for many receptors and channels.

Data set [8] relates to TRPV3 mRNA. In words: TRPV3 mRNA level in C4-2 cells, real-time RT-PCR. The class given is cell-based, human. The settings on record: 48 h, 300 μM. How it is done:
as §1, §2

Data set [9] relates to TSP1. In words: TSP1 expression in PC3 cells exposed to CoCl2. Format: cell-based, human. Here is the method: FIG. 4G represents the induction of VEGF (grey) and TSP1 (black) mRNA levels normalized to cyclophilin A levels in PC3 cells grown for the indicated periods in cobalt chloride as compared to the respective mRNA levels in control medium at the same time point.
FIG. 4H represents TSP1 immunodetection in PC3 cells grown for 48 h in control conditions (N) or in the presence of 300 μM CoCl2 to mimic hypoxia (H).
as §1

In data set [10] the test system is TSP1. The data set is described as follows: TSP1 secretion in the culture medium of C4-2 cells (western blotting). Format: cell-based, human. Particulars: 2 h treatment. Here is the method: FIG. 2B represents TSP1 secretion in the cell culture medium by C4-2 cells treated for 2 h by vehicle (left) or thapsigargin (1 μM) (right). The secreted TSP1 is measured by western blotting in the cell culture medium. FIG. 2D represents TSP1 secretion in the cell culture medium by C4-2 cells treated for 2 h by vehicle or camphor at the indicated doses. The secreted TSP1 is measured by western blotting in the cell culture medium. FIG. 3D represents Western blot detection of TSP1 in the culture medium of C4-2 cells transfected with cont- or TSP1-siRNA 48 h after transfection.

[11] abbreviates: C4-2 cells transfected with siRNA (10 nM), 2 days after transfection.

Take “TSP1b-siRNA: Duplex UACCCGAGACGAUUGUAUGdTdT / CAUACAAUCGUCUCGGGUAdTdT targeting specifically the human TSP1 mRNA (sense UACCCGAGACGAUUGUAUGTT; antisense CAUACAAUCGUCUCGGGUATT; sugars from the 5' end r19 d2, backbone not given here)”: the “TSP1 mRNA level” value in [1] (setting [11]) is given as “significantly reduces”. Also, the TSP1 protein level result in data set [2] was “significantly reduces”. In addition, the “effect on cell proliferation” value in data set [3] is “no effect; also recorded: without affecting”. In data set [4], the effect on apoptosis result is listed as “no effect”; the “enzymatic activity of caspases 3 and 7 versus control” value was “not statistically different”.
Turning to “TSP1a-siRNA: Duplex CCUUGACAACAACGUGGUGdTdT / CACCACGUUGUUGUCAAGGdTdT targeting TSP1 mRNA, sequence conserved between human and mouse (sense CCUUGACAACAACGUGGUGTT; antisense CACCACGUUGUUGUCAAGGTT; sugars from the 5' end r19 d2, backbone not given here)”, the “TSP1 mRNA level” value in data set [1] (setting [11]) is recorded as “significantly reduces”. For the same molecule, the TSP1 protein level entry in data set [2] is listed as “significantly reduces”. In data set [3], the “effect on cell proliferation” value was “no effect; also recorded: without affecting”. In data set [4], the effect on apoptosis result is given as “no effect”; the “enzymatic activity of caspases 3 and 7 versus control” value is on record as “not statistically different”.
In the case of “β3: siRNA targeting β3 integrin: GGAGAAUCUGCUGAAGGAUdTdT / AUCCUUCAGCAGAUUCUCCdTdT (chain 1 GGAGAAUCUGCUGAAGGAUTT; chain 2 AUCCUUCAGCAGAUUCUCCTT; sugars from the 5' end r19 d2, backbone not given here)”, the “migration of C4-2 cells” value in [5] is on record as “strongly reduced”.
As for Poly (I:C) [reference compound], the “induction of TLR3, TLR7, IL6, IL12b, IFNβ, IFNγ, and IP10 mRNA” value in data set [6] was “significant increase”.
As for “CD36: siRNA targeting CD36: UACAGACAGUUUUGGAUCUdTdT / AGAUCCAAAACUGUCUGUAdTdT (chain 1 UACAGACAGUUUUGGAUCUTT; chain 2 AGAUCCAAAACUGUCUGUATT; sugars from the 5' end r19 d2, backbone not given here)”, the “migration of C4-2 cells” value in data set [5] is reported as “strongly reduced”.
For `[Cl][Co][Cl]` [cobalt chloride], the “TSP1 mRNA level” value in data set [1] (C4-2 cells, 48 h, 300 μM) was “strongly induced”. Besides, the “intracellular calcium concentration, resting level” value in [7] (48 h) is reported as “increased over two fold”; in data set [7] (after 30 min), “not modified”. For the same molecule, the “TRPV3 mRNA level” value in [8] is “strongly induced”. Besides, the “TSP1 expression at the mRNA level” value in data set [9] is reported as “induced”. The “TSP1 expression at the protein level” value in data set [9] (48 h, 300 μM) is recorded as “induced”.
On to `C/C=C(/C)C(=O)O[C@H]1C(C)=C2[C@H]([C@@H]1OC(=O)CCCCCCC)[C@@](C)(OC(C)=O)C[C@H](OC(=O)CCC)[C@@]1(O)[C@H]2OC(=O)[C@@]1(C)O` [thapsigargin, reference compound], for which the “TSP1 in the cytosol” value in data set [2] (C4-2 cells, 2 h treatment, 1 μM) was “rapid depletion”.
For the molecule “TRPV2: siRNA targeting TRPV2: UAAGAGUCAACCUCAACUAdTdT / UAGUUGAGGUUGACUCUUAdTdT (chain 1 UAAGAGUCAACCUCAACUATT; chain 2 UAGUUGAGGUUGACUCUUATT; sugars from the 5' end r19 d2, backbone not given here)”, the “TSP1 mRNA level” value in data set [1] (setting [11]) is on record as “reduced”.
Turning to `CC12CCC(CC1=O)C2(C)C` (stereo not drawn) [camphor, reference compound], the “TSP1 mRNA level” value in [1] (C4-2 cells, 6 h treatment) is “dose dependent increase”. In addition, the “TSP1 secretion into the culture medium” value in data set [10] is on record as “stimulated”.
With “TRPV6: siRNA targeting TRPV6: GGAAGACAGGCAAGAUCUCdTdT / GAGAUCUUGCCUGUCUUCCdTdT (chain 1 GGAAGACAGGCAAGAUCUCTT; chain 2 GAGAUCUUGCCUGUCUUCCTT; sugars from the 5' end r19 d2, backbone not given here)”, in data set [1] (setting [11]), the “TSP1 mRNA level” value is recorded as “reduced”.
